Measured values reported in patent publication US10034886B2, “GLP-1 receptor modulators” (Celgene International II SÀRL, priority 2014, dated 2018).

Each compound was assayed against T1, GLP-1R (Homo sapiens, UniProt P43220) (assay: EC20 GLP-1(9-36) PAM cAMP assay: dose response of compound in the presence of fixed concentration of GLP-1(9-36)). Conditions: GLP-1R CRE-bla CHO-K1 cells, compound dose response with fixed concentration of GLP-1(9-36), read-out: EC20 GLP-1(9-36) PAM EC50.
T1 construct: host or cells: GLP-1R CRE-bla CHO-K1 cells
T1 sequence (P43220 24-463): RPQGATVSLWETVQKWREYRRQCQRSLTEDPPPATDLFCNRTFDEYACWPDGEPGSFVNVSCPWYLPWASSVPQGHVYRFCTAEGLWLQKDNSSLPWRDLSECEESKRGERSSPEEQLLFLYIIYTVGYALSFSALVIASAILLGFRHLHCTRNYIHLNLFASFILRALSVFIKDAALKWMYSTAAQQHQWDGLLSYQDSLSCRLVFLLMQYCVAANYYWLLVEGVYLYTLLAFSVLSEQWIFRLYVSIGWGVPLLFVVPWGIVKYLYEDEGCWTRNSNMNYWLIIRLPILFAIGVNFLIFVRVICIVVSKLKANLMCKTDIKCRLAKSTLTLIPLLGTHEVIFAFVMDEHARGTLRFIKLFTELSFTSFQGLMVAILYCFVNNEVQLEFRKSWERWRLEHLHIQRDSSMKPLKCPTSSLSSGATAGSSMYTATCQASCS
T1 sequence (P01275 100-127 partner limits assumed): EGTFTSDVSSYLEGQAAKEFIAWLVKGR
Type: cell-based
How it was run: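 Positive allosteric modulation read as cAMP accumulation: compound titrations (12 points) combined with an EC20 level of GLP-1(9-36) on CHO-K1 GLP-1R CRE-bla cells, IBMX present, 30 min, 37 °C, pH 7.4 buffer. Luminescence converted to cAMP via standards; non-linear fit gave EC50 and Emax.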

Compound | EC50 [nM]
C[C@@H](NC(=O)[C@H](Cc1ccc(-c2ncc(/C=C/c3ccc(F)cc3F)cn2)cc1)NC(=O)c1ccc(C(C)(C)C)s1)C(=O)O [Compound 1255] | 2500 to 5000
C[C@@H](NC(=O)[C@H](Cc1ccc(-c2ncc(-c3ccc(-c4ccc(C#N)cc4)cc3)cn2)cc1)NC(=O)c1ccc(C(C)(C)C)s1)C(=O)O [Compound 1291] | 800 to 2500

The next lines start with the values.

EC50 [nM] | Compound
800 to 2500 | COc1ccc(C2CCN(c3cnc(-c4ccc(CC(NC(=O)c5ccc(C(C)(C)C)s5)C(=O)N5CC(C(=O)O)C5)cc4)nc3)CC2)c(C)c1 (stereo not shown) [Compound 1483]
800 to 2500 | CCCc1ccc(-c2ccc(-c3cnc(-c4ccc(C[C@H](NC(=O)c5ccc(C(C)(C)C)s5)C(=O)O)cc4)nc3)cc2)cc1 [Compound 1393]
< 800 | CC[C@H]1CC[C@H](c2ccc(-c3cnc(-c4ccc(C[C@H](NC(=O)c5ccc(C(C)(C)C)cc5)C(=O)O)cc4)nc3)cc2)CC1 [Compound 1366]

Same assay, conditions: dose response of compound in presence of fixed concentration of GLP-1(9-36), GLP-1R CRE-bla CHO-K1 cells, read-out: EC20 GLP-1(9-36) PAM EC50

Compound | EC50 [nM]
CCC(C)(C)c1ccc(C(=O)N[C@@H](Cc2ccc(-c3ncc(-c4ccc([C@H]5CC[C@H](CC)CC5)cc4)cn3)cc2)C(=O)N2CC(C(=O)O)C2)cc1 [Compound 1157] | < 800
CCCCCCCOc1ccc(-c2cnc(-c3ccc(C[C@H](NC(=O)c4ccc(C(C)(C)C)cc4)C(=O)NC(CC(=O)O)c4ccccc4O)cc3)nc2)cc1 (stereo partly shown) [Compound 581] | 800 to 2500
CC(=O)c1cccc(-c2ccc(-c3cnc(-c4ccc(C[C@H](NC(=O)c5ccc(C(C)(C)C)s5)C(=O)N5CC(C(=O)O)C5)cc4)nc3)c(F)c2)c1 [Compound 1193] | < 800
CC(C)CCCCOc1ccc(-c2cnc(-c3ccc(C[C@H](NC(=O)c4ccc(C(C)(C)C)s4)C(=O)N4CC(C(=O)O)C4)cc3)nc2)cc1 [Compound 795] | < 800
CCCCCCCOc1ccc(-c2cnc(-c3ccc(C[C@H](NC(=O)c4ccc(C(C)(C)C)s4)C(=O)NC(Cc4ccccc4)C(=O)O)cc3)nc2)cc1 (stereo partly shown) [Compound 611] | < 800
CCCCCCCOc1ccc(-c2cnc(-c3ccc(C[C@H](NC(=O)c4ccc(C(C)(C)C)s4)C(=O)N4CC(C(=O)O)CC4C)cc3)nc2)cc1 (stereo partly shown) [Compound 892] | < 800
CCCCCCCOc1ccc(-c2cnc(-c3ccc(CC(NC(=O)c4ccc(C(C)(C)C)s4)C(=O)NCCCC(=O)O)cc3)nc2)cc1 (stereo not shown) [Compound 429] | 2500 to 5000
CC(C)CCCOc1ccc(-c2cnc(-c3ccc(C[C@H](NC(=O)c4ccc(C(C)(C)C)s4)C(=O)N[C@H](C)C(=O)O)cc3)nc2)cc1 [Compound 771] | 800 to 2500

Further lines, results first:

EC50 [nM] | Compound
< 800 | CC(C)(C)c1ccc(C(=O)N[C@@H](Cc2ccc(-c3ncc(-c4ccc(-c5ccc(Cl)cc5)cc4F)cn3)cc2)C(=O)N2CC(C(=O)O)C2)s1 [Compound 1190]
800 to 2500 | CCCCCCCOc1ccc(-c2cnc(-c3ccc(C[C@H](NC(=O)c4ccc(C(C)(C)C)cc4)C(=O)N[C@@H](CC(=O)N[C@@H](C)C(=O)O)C(=O)O)cc3)nc2)cc1 [Compound 483]
5000 to 10000 | CCCCCCCOc1ccc(-c2cnc(-c3ccc(CC(NC(=O)c4ccc(C(C)(C)C)s4)C(=O)NCCCCCC(=O)O)cc3)nc2)cc1 (stereo not shown) [Compound 460]
800 to 2500 | CCCCCCCOc1ccc(-c2cnc(-c3ccc(C[C@H](NC(=O)c4ccc(CCCC)cc4)C(=O)N[C@H](C)C(=O)O)cc3)nc2)cc1 [Compound 821]
2500 to 5000 | CCCCCCCOc1ccc(-c2cnc(-c3ccc(C[C@H](NC(=O)CN(C)C)C(=O)N[C@H](C)C(=O)O)cc3)nc2)cc1 [Compound 826]
5000 to 10000 | CCCCCCCOc1ccc(-c2cnc(-c3ccc(C[C@H](NC(=O)c4ccc(C(C)(C)C)s4)C(=O)NC(C(=O)O)[C@H](C)c4ccccc4)cc3)nc2)cc1 (stereo partly shown) [Compound 896]
2500 to 5000 | CCCCCCCOc1ccc(-c2cnc(-c3ccc(C[C@H](NC(=O)c4ccc(C(C)(C)C)cc4)C(=O)N[C@H](CCN)C(=O)O)cc3)nc2)cc1 [Compound 476]
2500 to 5000 | CC(C)(C)c1ccc(C(=O)N[C@@H](Cc2ccc(-c3ncc(-c4ccc(OC5CC5)cc4)cn3)cc2)C(=O)N2CC(C(=O)O)C2)s1 [Compound 780]
< 800 | CCCCCCCOc1ccc(-c2cnc(-c3ccc(CC(NC(=O)c4ccc(C(C)(C)C)s4)C(=O)N[C@H](C(=O)O)C(C)C)cc3)nc2)cc1 (stereo partly shown) [Compound 407]
